Laboratory results taken from patent US10189828B2, “1-methylpyrazole-piperazine compounds having multimodal activity against pain” (LABORATORIOS DEL DR. ESTEVE S.A., priority 2014, dated 2019).

System: human σ1 receptor and human μ-opioid receptor
Test: μ and σ1 dual binding: human σ1 receptor radioligand assay ([3H](+)-pentazocine, transfected HEK-293 membranes) and human μ-opioid receptor radioligand assay ([3H]-DAMGO, transfected CHO-K1 membranes)
Parameters: key to μ and σ1 dual binding: +: Both Ki-μ and Ki-σ1>=500 nM; ++: One Ki<500 nM while the other Ki is >=500 nM; +++: Both Ki-μ and Ki-σ1<500 nM; ++++: Both Ki-μ and Ki-σ1<100 nM
Details: for Ki: one combined class for Ki-μ and Ki-σ1

Cn1nccc1C(c1ccc(F)cn1)N1CCN(CCc2ncccc2Cl)CC1 (stereo not drawn) [Example 43, 1-(2-(3-chloropyridin-2-yl)ethyl)-4-((5-fluoropyridin-2-yl)(1-methyl-1H-pyrazol-5-yl)methyl)piperazine]
μ and σ1 dual binding: ++

Cn1nccc1C(c1ccccc1)N1CCN(CCc2cccc(NS(C)(=O)=O)n2)CC1 (stereo not drawn) [Example 44, N-(6-(2-(4-((1-methyl-1H-pyrazol-5-yl)(phenyl)methyl)piperazin-1-yl)ethyl)pyridin-2-yl)methanesulfonamide]
Ki: ≥ 500 nM

Cn1nccc1C(c1ccccc1)N1CCN(CCc2cccc(N(S(C)(=O)=O)S(C)(=O)=O)n2)CC1 (stereo not drawn) [Example 45, N-(6-(2-(4-((1-methyl-1H-pyrazol-5-yl)(phenyl)methyl)piperazin-1-yl)ethyl)pyridin-2-yl)-N-(methylsulfonyl)methanesulfonamide]
Ki: ≥ 500 nM
